Assay results as given in patent US20100056526A1, “HETEROMONOCYCLIC COMPOUND AND USE THEREOF” (Takeda Pharmaceutical Company Limited, priority 2006, published 2010).
Structures can show the parent of a compound that is named as a salt. Where two headings read alike, the source gives them in different places.

Tests used:
human AT1 receptor = target: T1, human AT1 receptor (Homo sapiens, UniProt P30556); test: Binding assay using human AT1 receptor-expressing CHO-K1 cell membrane fraction ([125I]-angiotensin II); details: 22.5 pM [125I]-angiotensin II, 9 μg AT1 membrane, 1 hr room temperature; read-out: AT1 receptor binding inhibitory action (IC50 (nM))
T1 construct: expressed in transfected cells; host or cells: CHO-K1
T1 sequence (P30556 1-359): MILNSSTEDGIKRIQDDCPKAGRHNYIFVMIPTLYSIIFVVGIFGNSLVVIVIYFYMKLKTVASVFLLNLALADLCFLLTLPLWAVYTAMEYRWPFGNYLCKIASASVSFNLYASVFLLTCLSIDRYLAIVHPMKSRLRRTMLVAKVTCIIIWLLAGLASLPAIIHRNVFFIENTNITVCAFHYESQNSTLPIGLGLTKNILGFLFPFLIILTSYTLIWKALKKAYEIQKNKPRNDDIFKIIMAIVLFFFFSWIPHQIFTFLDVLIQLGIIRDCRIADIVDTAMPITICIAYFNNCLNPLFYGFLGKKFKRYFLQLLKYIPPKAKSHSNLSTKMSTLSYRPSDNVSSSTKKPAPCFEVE
In short: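 CHO-K1 membranes stably expressing AT1 (9 μg) incubated with 22.5 pM [125I]-angiotensin II and compound in 50 mM Tris pH 7.4, 10 mM MgCl2, with or without 0.3 mg/mL fatty acid-free BSA, 1 hr at room temperature. Bound radioactivity counted after GF/C filtration; nonspecific binding with 1 μM CV-11974; IC50 calculated.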

PPARγ = target: T2, PPARγ (Homo sapiens, UniProt P37231); test: Evaluation of PPARγ activating action (luciferase reporter in PPARγ:RXRα:4ERPP/CHO-K1 cells); type: cell-based; details: CHO-K1, 24 h, read-out: PPARγ activating action (activation % (10^−6 M))
T2 construct: expressed in transfected cells; host or cells: CHO-K1
T2 sequence (P37231 1-477 isoform P37231-2): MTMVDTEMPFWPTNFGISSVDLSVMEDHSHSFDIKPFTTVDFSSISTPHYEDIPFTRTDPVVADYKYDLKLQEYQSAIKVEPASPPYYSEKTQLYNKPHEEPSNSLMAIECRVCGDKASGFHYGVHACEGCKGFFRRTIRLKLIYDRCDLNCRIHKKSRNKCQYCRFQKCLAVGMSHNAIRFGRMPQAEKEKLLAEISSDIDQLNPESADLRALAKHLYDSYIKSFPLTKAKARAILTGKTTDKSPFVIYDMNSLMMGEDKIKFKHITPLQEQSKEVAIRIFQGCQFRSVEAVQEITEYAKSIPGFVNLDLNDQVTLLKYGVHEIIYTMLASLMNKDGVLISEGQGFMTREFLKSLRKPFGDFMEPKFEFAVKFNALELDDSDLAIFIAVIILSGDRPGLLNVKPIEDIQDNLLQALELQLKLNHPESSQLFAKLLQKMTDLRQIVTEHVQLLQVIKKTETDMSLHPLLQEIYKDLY
T2 sequence (P19793 1-462 partner): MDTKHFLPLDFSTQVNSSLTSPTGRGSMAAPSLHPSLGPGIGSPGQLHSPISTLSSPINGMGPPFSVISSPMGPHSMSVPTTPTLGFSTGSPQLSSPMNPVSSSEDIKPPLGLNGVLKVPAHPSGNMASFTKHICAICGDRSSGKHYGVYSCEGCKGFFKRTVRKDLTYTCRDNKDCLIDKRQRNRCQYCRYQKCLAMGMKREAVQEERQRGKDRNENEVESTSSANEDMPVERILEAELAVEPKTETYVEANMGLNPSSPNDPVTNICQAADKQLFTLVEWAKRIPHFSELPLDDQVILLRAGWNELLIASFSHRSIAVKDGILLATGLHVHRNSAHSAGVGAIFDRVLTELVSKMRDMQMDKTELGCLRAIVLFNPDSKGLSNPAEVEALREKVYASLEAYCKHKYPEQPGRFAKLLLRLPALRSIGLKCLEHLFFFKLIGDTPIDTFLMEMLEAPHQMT
In short: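 CHO-K1 cells stably carrying PPARγ, RXRα and a 4ERPP luciferase reporter were treated with compound for 1 day at 37 °C in F12 medium with 0.1% fatty acid-free BSA. Luciferase activity was read and scaled between no compound (0%) and reference agonist compound X at 1 μM (100%).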

[1] = test compound 10^−6 M, luciferase activity relative to control compound X (1 μM) = 100%, non-administration group = 0%

Compound	IC50 (human AT1 receptor) [nM]	activation at 1 µM (PPARγ; [1]) [%]	activation at 1 µM (PPARγ) [%]
CCCCc1nc(C)n(Cc2cccs2)c(=O)c1Cc1ccc(-c2ccccc2-c2noc(=O)[nH]2)cc1 [Example 32, 6-butyl-2-methyl-5-{[2′-(5-oxo-4,5-dihydro-1,2,4-oxadiazol-3-yl)biphenyl-4-yl]methyl}-3-(2-thienylmethyl)pyrimidin-4(3H)-5 one]	1.3	55.6	
CCCCc1nc(C2CC2)n(-c2ccccc2)c(=O)c1Cc1ccc(-c2ccccc2-c2noc(=O)[nH]2)cc1 [Example 310, 6-butyl-2-cyclopropyl-5-{[2′-(5-oxo-4,5-dihydro-1,2,4-oxadiazol-3-yl)biphenyl-4-yl]methyl}-3-phenylpyrimidin-4(3H)-one potassium salt]	1.9		27.1
CCCCc1nc(C2CC2)n(-c2ccc3c(c2)CCO3)c(=O)c1Cc1ccc(-c2ccccc2-c2noc(=O)[nH]2)cc1 [Example 112, 6-butyl-2-cyclopropyl-3-(2,3-dihydro-1-benzofuran-5-yl)-5-{[2′-(5-oxo-4,5-dihydro-1,2,4-oxadiazol-3-yl)biphenyl-4-yl]methyl}pyrimidin-4(3H)-one]	1.7	52.1	
CCCc1nc(C)n(-c2ccc(OC(C)C)cc2)c(=O)c1Cc1ccc(-c2ccccc2-c2noc(=O)[nH]2)cc1F [Example 141, 5-{[3-fluoro-2′-(5-oxo-4,5-dihydro-1,2,4-oxadiazol-3-yl)biphenyl-4-yl]methyl}-3-(4-isopropoxyphenyl)-2-methyl-6-propylpyrimidin-4(3H)-one]	1.8	38.3	
CCCCc1nc(C)n(CC2CCCCC2)c(=O)c1Cc1ccc(-c2ccccc2-c2noc(=O)[nH]2)cc1 [Example 48, 6-butyl-3-(cyclohexylmethyl)-2-methyl-5-{[2′-(5-oxo-4,5-dihydro-1,2,4-oxadiazol-3-yl)biphenyl-4-yl]methyl}pyrimidin-4(3H)-one]	1.8	68.8	
CCCc1nc(C)n(-c2ccc3c(c2)C(=O)CC(C)(C)O3)c(=O)c1Cc1ccc(-c2ccccc2-c2noc(=O)[nH]2)cc1 [Example 145, 3-(2,2-dimethyl-4-oxo-3,4-dihydro-2H-chromen-6-yl)-2-methyl-5-{[2′-(5-oxo-4,5-dihydro-1,2,4-oxadiazol-3-yl)biphenyl-4-yl]methyl}-6-propylpyrimidin-4(3H)-one]	1.8	36.5	
CCOc1nc(C)c(Cc2ccccc2)c(=O)n1Cc1ccc(-c2ccccc2-c2noc(=O)[nH]2)cc1 [Example 4, 5-benzyl-2-ethoxy-6-methyl-3-{[2′-(5-oxo-4,5-dihydro-1,2,4-oxadiazol-3-yl)biphenyl-4-yl]methyl}pyrimidin-4(3H)-one]	1.9	35.8	
CCCCc1nc(C)n(Cc2noc(-c3ccccc3)n2)c(=O)c1Cc1ccc(-c2ccccc2-c2noc(=O)[nH]2)cc1 [Example 152, 6-butyl-2-methyl-5-{[2′-(5-oxo-4,5-dihydro-1,2,4-oxadiazol-3-yl)biphenyl-4-yl]methyl}-3-[(5-phenyl-1,2,4-oxadiazol-3-yl)methyl]pyrimidin-4(3H)-one]	2.1	64.8	
CCCCc1nc(C)n(-c2ccc(C)c(C)c2)c(=O)c1Cc1ccc(-c2ccccc2-c2noc(=O)[nH]2)cc1 [Example 202, 6-butyl-3-(3,4-dimethylphenyl)-2-methyl-5-{[2′-(5-oxo-4,5-dihydro-1,2,4-oxadiazol-3-yl)biphenyl-4-yl]methyl}pyrimidin-4(3H)-one]	1.5	25.3	
CCCCc1nc(C)n(C(C)c2ccccc2)c(=O)c1Cc1ccc(-c2ccccc2-c2noc(=O)[nH]2)cc1 (centres unmarked) [Example 67, 6-butyl-2-methyl-5-{[2′-(5-oxo-4,5-dihydro-1,2,4-oxadiazol-3-yl)biphenyl-4-yl]methyl}-3-(1-phenylethyl)pyrimidin-4(3H)-one]	2	49.4	
CCCc1nc(C)n(CC2CCCCO2)c(=O)c1Cc1ccc(-c2ccccc2-c2noc(=O)[nH]2)cc1 (centres unmarked) [Example 81, 2-methyl-5-{[2′-(5-oxo-4,5-dihydro-1,2,4-oxadiazol-3-yl)biphenyl-4-yl]methyl}-6-propyl-3-(tetrahydro-2H-pyran-2-ylmethyl)pyrimidin-4(3H)-one]	1.6	62.9	

Second part, led by results:

IC50 (human AT1 receptor) [nM]	activation at 1 µM (PPARγ; [1]) [%]	Compound	activation at 1 µM (PPARγ) [%]
2.4	31.5	CCCc1nc(CC)c(-c2ccc(OC(C)C)nc2)c(=O)n1Cc1ccc(-c2ccccc2-c2noc(=O)[nH]2)cc1 [Example 483, 6-ethyl-5-(6-isopropoxypyridin-3-yl)-3-{[2′-(5-oxo-4,5-dihydro-1,2,4-oxadiazol-3-yl)biphenyl-4-yl]methyl}-2-propylpyrimidin-4(3H)-one]	
1.2	53.5	CCCc1nc(CC)n(-c2ccc(OC3CCC(=O)CC3)cc2)c(=O)c1Cc1ccc(-c2ccccc2-c2noc(=O)[nH]2)cc1 [Example 416, 2-ethyl-3-{4-[(4-oxocyclohexyl)oxy]phenyl}-5-{[2′-(5-oxo-4,5-dihydro-1,2,4-oxadiazol-3-yl)biphenyl-4-yl]methyl}-6-propylpyrimidin-4(3H)-one]	
2.2	22.6	CCCc1nc(C)n(-c2ccc(OC(C)C#N)cc2)c(=O)c1Cc1ccc(-c2ccccc2-c2noc(=O)[nH]2)cc1 (centres unmarked) [Example 327, 2-{4-[2-methyl-6-oxo-5-{[2′-(5-oxo-4,5-dihydro-1,2,4-oxadiazol-3-yl)biphenyl-4-yl]methyl}-4-propylpyrimidin-1(6H)-yl]phenoxy}propanenitrile]	
1.6	29.9	CCCc1nc(C)n(-c2ccc(OC(C)(C)C(C)=O)cc2)c(=O)c1Cc1ccc(-c2ccccc2-c2noc(=O)[nH]2)cc1 [Example 440, 3-[4-(1,1-dimethyl-2-oxopropoxy)phenyl]-2-methyl-5-{[2′-(5-oxo-4,5-dihydro-1,2,4-oxadiazol-3-yl)biphenyl-4-yl]methyl}-6-propylpyrimidin-4(3H)-one]	
1.8	28.2	CCCc1nc(C)n(-c2ccc(OC(C)COC)cc2)c(=O)c1Cc1ccc(-c2ccccc2-c2noc(=O)[nH]2)cc1 (centres unmarked) [Example 293, 3-[4-(2-methoxy-1-methylethoxy)phenyl]-2-methyl-5-{[2′-(5-oxo-4,5-dihydro-1,2,4-oxadiazol-3-yl)biphenyl-4-yl]methyl}-6-propylpyrimidin-4(3H)-one]	
1.8	25.3	CCCc1nc(CC)n(-c2cccc(C(C)(C)O)c2)c(=O)c1Cc1ccc(-c2ccccc2-c2noc(=O)[nH]2)cc1 [Example 365, 2-ethyl-3-[3-(1-hydroxy-1-methylethyl)phenyl]-5-{[2′-(5-oxo-4,5-dihydro-1,2,4-oxadiazol-3-yl)biphenyl-4-yl]methyl}-6-propylpyrimidin-4(3H)-one]	
3.4	30.2	CCCc1nc(C)n(-c2ccc(OC(C)C)nc2)c(=O)c1Cc1ccc(-c2ccccc2-c2noc(=O)[nH]2)cc1 [Example 325, 3-(6-isopropoxypyridin-3-yl)-2-methyl-5-{[2′-(5-oxo-4,5-dihydro-1,2,4-oxadiazol-3-yl)biphenyl-4-yl]methyl}-6-propylpyrimidin-4(3H)-one]	
2.2	30	CCCc1nc(CC)c(-c2ccc(OC(C)C)c(F)c2)c(=O)n1Cc1ccc(-c2ccccc2-c2noc(=O)[nH]2)cc1 [Example 460, 6-ethyl-5-(3-fluoro-4-isopropoxyphenyl)-3-{[2′-(5-oxo-4,5-dihydro-1,2,4-oxadiazol-3-yl)biphenyl-4-yl]methyl}-2-propylpyrimidin-4(3H)-one]	
